Source: patent US20210381060A1, “CANCER SPECIFIC IMMUNOTHERAPEUTIC TARGETS GENERATED BY CHEMOTHERAPEUTIC DRUG TREATMENT” (Health Research, Inc., priority 2018, published 2021)

Assays:
MCF10A p53+/+ cell line = test: RT-PCR of cell cycle progression gene mRNA after 5-FU exposure; assay type: cell-based, human; settings: 300 μM 5-FU for 24 h
Procedure: (§1) FIG. 2. […] P53 mutant MDA-MB-231 cells, p53wt MCF10A cells, and MCF10A cells with biallelic frameshift mutation in the p53 gene were treated or untreated with 300uM of 5-FU for 24 h. NMD was inhibited or not with 10 mM caffeine for 4 h before cytoplasmic RNA isolation. “*” symbols indicate RT-PCR amplicons with retained introns.
(§2) The following breast cell lines were used: MDA-MB-231 p53−/−, MCF10A p53+/+ cell line and the derivative of MCF10A p53−/−, all treated or untreated with 300 μM of 5-FU for 24 h. In addition, the NMD pathway was inhibited or not inhibited with caffeine for 4 h before cytoplasmic RNA isolation in order to detect the mRNA species that are degraded due to stop codons contained within retained introns.

4T1 tumor cells = test: Tumor challenge with 5FU-treated or untreated 4T1 cells, tumor growth; assay type: in vivo, BALB/cJ mice; settings: FIG. 3B top, 5FU-treated mice (i.p. 100 mg/kg day -7, 50 mg/kg day 0, 20 mg/kg every three days)
Procedure: (§3) FIG. 3. BALB/cJ mice were challenged (on the left flank) at day 0 with 150,000 5FU- treated or untreated 4T1 tumor cells. Seven days after the first tumor challenge, they were challenged (on the right flank) with 95,000 5FU- treated or untreated Meth A tumor cells and growth of both tumors was measured. […] Each line represents tumor growth in a single mouse. […] B. (Top panel) 4T1 (un-treated or in vitro-5FU treated) growth curves in 5FU-treated mice (5FU i.p. 100 mg/kg at day -7, 50 mg/kg at day 0 and 20 mg/kg every three days after the first tumor challenge). […] (Bottom panel) The same mice as the top panel were challenged with un-treated or 5FU-treated Meth A cells, one week after challenge with 4T1 cells.
(§4) As known in the art, 4T1 cells are a breast cancer cell line derived from the mammary gland tissue of mouse. Meth A cancer cells are methyl-cholantrene-induced mouse sarcoma cells. […] This Example analyzes whether treatment with 5-FU generates new antigenic entities (such as CiPAS), and if treatment of both cell types produces the same antigens in both cells. If this process occurs, the antigens should be processed and presented identically in both cells of the BALB/c haplotype.
(§5) First, we tested if treatment of cells in vitro with 5-FU, in and of itself, makes the cancer cells grow differently because of cell death, or another phenomenon.

Meth A tumor cells = test: Tumor challenge with 5FU-treated or untreated Meth A cells, tumor growth; assay type: in vivo, BALB/cJ mice; settings: for growth of 5-FU treated vs un-treated Meth A cells in vivo (AUC): FIG. 3A, in vitro 5-FU treatment alone, P=0.07; for growth of 5-FU-treated vs un-treated Meth A cells (AUC) in mice previously immunized with 5-FU-treated 4T1 cells: challenge one week after 4T1, P=0.003
Procedure: as §3, §4, §5

MDA-MB-231 = test: RNA-Seq detection of CiPAS (retained-intron polypeptides); assay type: cell-based, human
Description: (§6) The following Table 1 provides predicted-CiPAS and includes polypeptide sequences encoded by introns detected with high confidence in RNA-Seq generated from MDA-MB-231 and MCF10A p53−/− KO cells treated with 5-FU and caffeine and not detected in cells treated with caffeine alone. 38 and 76 CiPAS were detected in MDA-MB-231 and MCF10A p53−/− KO cells, respectively, including 18 shared CiPAS. Certain representative and non-limiting chemo-neoepitopes encoded by the CiPaS sequences are shown in bold, with overlapping amino acids in italics.

MCF10A p53−/− KO cells = test: as above; assay type: cell-based, human; settings: cells treated with 5-FU and caffeine, not detected with caffeine alone
Description: as §6

MCF10A p53−/− = test: RT-PCR analysis of intron retention after 5-FU exposure; assay type: cell-based, human; settings: 300 μM 5-FU for 24 h
Procedure: as §1, §2

MDA-MB-231 p53−/− = test: as above; assay type: cell-based, human; settings: 300 μM 5-FU for 24 h
Procedure: as §1, §2

MCM10 mRNA in response to 5-FU (MCF10A p53+/+ cell line; data not shown): repressed
transcription of the mRNA of the CCNE2 cell cycle progression gene in response to 5-FU (MCF10A p53+/+ cell line; only in MCF10A cells with p53+/+): repressed
number of genes with overexpressed introns in 5-FU treated 4T1 samples (4T1 cells): 804 genes
number of introns overexpressed in 5-FU treated 4T1 samples (4T1 cells): 991 introns
intron retention in MCM10 and CCNE2 genes in response to 5-FU (MCF10A p53−/−; only in cells with mutant p53): intron retention
intron retention in MCM10 and CCNE2 genes in response to 5-FU (MDA-MB-231 p53−/−; only in cells with mutant p53): intron retention
Structure (SMILES): O=c1[nH]cc(F)c(=O)[nH]1 [5-FU, 5-fluorouracil]
growth of 5-FU treated vs un-treated 4T1 cells in vivo (AUC) (4T1 tumor cells): grow essentially identically
growth of 5-FU treated vs un-treated 4T1 cells in vivo (AUC) (4T1 tumor cells; listed as 5FU): grow the same
growth of 5-FU treated vs un-treated Meth A cells in vivo (AUC) (Meth A tumor cells): grow identically
growth of 5-FU treated vs un-treated Meth A cells in vivo (AUC) (Meth A tumor cells; listed as 5FU): grow similarly
slower growth of 5-FU-treated Meth A cells in mice previously challenged with 5-FU-untreated 4T1 cells (Meth A tumor cells; FIG. 3B bottom): not seen
growth of 5-FU-treated vs un-treated Meth A cells (AUC) in mice previously immunized with 5-FU-treated 4T1 cells (Meth A tumor cells; FIG. 3B bottom): grow more slowly
growth of 5-FU-treated vs un-treated Meth A cells (AUC) in mice previously immunized with 5-FU-treated 4T1 cells (Meth A tumor cells; FIG. 3B bottom, listed as 5FU): significantly lower
number of CiPAS detected (MDA-MB-231; cells treated with 5-FU and caffeine, not detected with caffeine alone): 38 CiPAS
number of shared CiPAS (MDA-MB-231; shared between MDA-MB-231 and MCF10A p53−/− KO cells, 5-FU and caffeine): 18 CiPAS
number of CiPAS detected (MCF10A p53−/− KO cells): 76 CiPAS
extent of retention of 6th intron of the CCNE2 gene (MCF10A p53−/−): the whole intron is retained
extent of retention of 6th intron of the CCNE2 gene (MDA-MB-231 p53−/−): only part of the 6th intron of the CCNE2 gene is retained
